Assay: collision cross section in nitrogen (drift tube, single-field); higher = larger gas-phase ion size
[1] = ion type: [M-H], ion source: ESI, ion mode: Negative
[2] = ion type: [M+Na], ion source: ESI, ion mode: Positive
[3] = ion type: [M+H], ion source: ESI, ion mode: Positive
[4] = ion type: [M+H], ion source: APCI, ion mode: Positive
[5] = ion type: [M+], ion source: APCI, ion mode: Positive
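Note: chemical standards at 10 µM analysed by drift tube IMS-QTOF MS in about 3.95 torr nitrogen, mean of duplicate injections differing ≤1%, mass error below 10 ppm.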

| Compound | collision cross section in nitrogen [1] | collision cross section in nitrogen [3] | also measured |
| --- | --- | --- | --- |
| Cc1cc(Cl)ccc1O [4-Chloro-2-methylphenol] | 124.8 Å² |  |  |
| Cc1cc(O)cc(C)c1Cl [4-Chloro-3,5-dimethylphenol] | 131.7 Å² |  |  |
| Cc1cc(O)ccc1Cl [4-Chloro-3-methylphenol] | 125.9 Å² |  |  |
| Nc1ccc(Cl)c([N+](=O)[O-])c1 [4-Chloro-3-nitroaniline] | 126.1 Å² |  |  |
| NS(=O)(=O)c1ccc(Cl)cc1 [4-Chlorobenzenesulphonamide] | 134.9 Å² |  |  |
| O=S(=O)(O)c1ccc(Cl)cc1 [4-Chlorobenzenesulphonic acid] | 133.5 Å² |  |  |
| O=C(c1ccccc1)c1ccc(Cl)cc1 [4-Chlorobenzophenone] |  |  | collision cross section in nitrogen [2]: 151.1 Å² |
| O=C(O)c1cc[c]([Hg][Cl])cc1 [4-Chloromercuribenzoic acid] | 143 Å² |  |  |
| Oc1ccc(Cl)cc1 [4-Chlorophenol] | 120.2 Å² |  |  |
| O=C(O)COc1ccc(Cl)cc1 [4-Chlorophenoxyacetic acid] | 140.9 Å² |  |  |
| N#CCc1ccc(Cl)cc1 [4-Chlorophenylacetonitrile] | 130.4 Å² |  |  |
| [O-][n+]1ccc(Cl)cc1 [4-Chloropyridine 1-oxide] | 117.2 Å² | 121.6 Å² |  |
| Oc1ccc(Cl)c(O)c1 [4-Chlororesorcinol] | 122.5 Å² |  |  |
| CC(C)(c1ccccc1)c1ccc(O)cc1 [4-Cumylphenol] | 157.8 Å² |  |  |
| N#Cc1ccc(C(=O)O)cc1 [4-Cyanobenzoic acid] | 142.1 Å² |  |  |
| Cc1c(N(C)C)c(=O)n(-c2ccccc2)n1C [4-Dimethylaminoantipyrine] |  | 152.5 Å² | collision cross section in nitrogen [4]: 152.1 Å²; collision cross section in nitrogen [2]: 166.2 Å² |
| CN(C)c1ccc(C=O)cc1 [4-Dimethylaminobenzaldehyde] |  | 129 Å² | collision cross section in nitrogen [4]: 129.3 Å² |
| CCCCCCCCCCCCN1CCOCC1 [4-Dodecylmorpholine] |  | 176.3 Å² | collision cross section in nitrogen [4]: 176.3 Å² |
| CCOc1ccc(N)cc1 [4-Ethoxyaniline] |  | 139.8 Å² |  |
| CCc1ccc(O)cc1 [4-Ethylphenol] | 128.7 Å² |  | collision cross section in nitrogen [5]: 123.4 Å² |
| Nc1ccc(F)c([N+](=O)[O-])c1 [4-Fluoro-3-nitroaniline] | 121.9 Å² |  |  |
| CCCCCCCc1ccc(O)cc1 [4-Heptylphenol] | 157.1 Å² |  |  |

| Compound | collision cross section in nitrogen [1] | collision cross section in nitrogen [3] | also measured |
| --- | --- | --- | --- |
| CCCCCCc1ccc(N)cc1 [4-Hexylaniline] |  | 162.8 Å² | collision cross section in nitrogen [4]: 162.8 Å² |
| CCCCCCOc1ccc(N)cc1 [4-Hexyloxyaniline] |  | 167.4 Å² | collision cross section in nitrogen [4]: 168 Å² |
| CCCCCCc1ccc(O)cc1O [4-Hexylresorcinol] | 150.2 Å² |  |  |
| COc1cc(C=O)ccc1O [4-Hydroxy-3-methoxybenzaldehyde] | 128.1 Å² |  |  |
| COc1cnccc1O [4-Hydroxy-3-methoxypyridine] |  | 121.8 Å² | collision cross section in nitrogen [4]: 120.7 Å² |
| O=[N+]([O-])c1cc([As](=O)(O)O)ccc1O [4-Hydroxy-3-nitrophenylarsonic acid] | 141.8 Å² | 145 Å² |  |
| O=S(=O)(O)c1cc(O)c2ccc(Nc3ccccc3)cc2c1 [4-Hydroxy-7-(phenylamino)naphthalene-2-sulfonic acid] | 180.6 Å² |  |  |
| CC(=O)c1ccc(O)cc1 [4-Hydroxyacetophenone] | 125.5 Å² |  |  |
| C[C@]12CCC(=O)C(O)=C1CC[C@@H]1[C@@H]2CC[C@]2(C)C(=O)CC[C@@H]12 [4-Hydroxyandrostenedione] | 180 Å² |  |  |
| N#Cc1ccc(O)cc1 [4-Hydroxybenzonitrile] | 118.1 Å² |  |  |
| O=C(Oc1ccc(O)cc1)c1ccccc1 [4-Hydroxyphenyl benzoate] | 154.7 Å² |  |  |
| CCC(=C(c1ccc(O)cc1)c1ccc(OCCN(C)C)cc1)c1ccccc1 [4-Hydroxytamoxifen] | 214.6 Å² | 200.9 Å² | collision cross section in nitrogen [4]: 201 Å²; collision cross section in nitrogen [2]: 196.9 Å² |
| Oc1ccc(I)cc1 [4-Iodophenol] | 124.5 Å² |  |  |
| CC(C)c1ccc(S(=O)(=O)O)cc1 [4-Isopropylbenzenesulfonic acid] | 147.7 Å² |  |  |
| CC(C)c1ccc(O)cc1 [4-Isopropylphenol] | 134.1 Å² |  |  |
| COc1ccc(Nc2ccccc2)c(C)c1 [4-Methoxy-2-methyl-N-phenylaniline] |  | 150.5 Å² | collision cross section in nitrogen [4]: 150.5 Å²; collision cross section in nitrogen [5]: 148.1 Å² |
| COc1ccc(N)c(C)c1 [4-Methoxy-2-methylaniline] |  | 135.7 Å² | collision cross section in nitrogen [4]: 124.8 Å² |
| COc1ccc(N)cc1 [4-Methoxybenzenamine] |  | 133.2 Å² | collision cross section in nitrogen [4]: 120.3 Å² |
| COc1ccc(O)cc1 [4-Methoxyphenol] |  |  | collision cross section in nitrogen [5]: 123.7 Å² |
| COc1ccc(CC#N)cc1 [4-Methoxyphenylacetonitrile] |  |  | collision cross section in nitrogen [4]: 127.3 Å² |
| CC1CN(c2ccccc2)NC1=O (centres undefined) [4-Methyl-1-phenylpyrazolidin-3-one] |  |  | collision cross section in nitrogen [5]: 138 Å² |
| Cc1ccc(N)c([N+](=O)[O-])c1 [4-Methyl-2-nitroaniline] | 127.7 Å² |  |  |

| Compound | collision cross section in nitrogen [1] | collision cross section in nitrogen [3] | also measured |
| --- | --- | --- | --- |
| Cc1ccc(S(=O)(=O)O)cc1 [4-Methylbenzenesulfonic acid hydrate] | 134.4 Å² |  |  |
| Cc1ccnc(N)c1 [4-Methylpyridin-2-amine] |  | 119.5 Å² | collision cross section in nitrogen [4]: 118.1 Å² |
| Cc1cc(=O)oc2cc(O)ccc12 [4-Methylumbelliferone hydrate] | 133.7 Å² | 133 Å² |  |
| Cc1cc(=O)oc2cc(O)ccc12 [4-Methylumbelliferone] | 133.3 Å² | 132.6 Å² |  |
| NCCCN1CCOCC1 [4-Morpholinepropanamine] |  | 128.2 Å² | collision cross section in nitrogen [4]: 128.3 Å² |
| O=S(=O)(O)CCCN1CCOCC1 [4-Morpholinepropanesulfonic acid] | 149.5 Å² | 142.4 Å² | collision cross section in nitrogen [4]: 142.7 Å²; collision cross section in nitrogen [2]: 154.6 Å² |
| Nc1cc([N+](=O)[O-])ccc1C(=O)O [4-Nitroanthranilic acid] | 133.5 Å² |  |  |
| O=[N+]([O-])c1ccc(O)cc1 [4-Nitrophenol] | 120.6 Å² |  |  |
| O=[N+]([O-])c1cc[n+]([O-])cc1 [4-Nitropyridine-1-oxide] | 119.2 Å² |  |  |
| O=Nc1ccc(Nc2ccccc2)cc1 [4-Nitrosodiphenylamine] | 144.7 Å² | 144.2 Å² | collision cross section in nitrogen [4]: 144.3 Å² |
| CCCCCCCCCc1ccc(O)cc1 [4-Nonylphenol] | 161.4 Å² |  |  |
| CCCCCCCCc1ccc(O)cc1 [4-Octylphenol] | 159.9 Å² |  |  |
| CCCCCc1ccc(N)cc1 [4-Pentylaniline] |  | 156.5 Å² |  |
| CCCCCc1ccc(O)cc1 [4-Pentylphenol] | 146.9 Å² |  |  |
| Oc1ccc(Oc2ccccc2)cc1 [4-Phenoxyphenol] | 145.7 Å² |  |  |
| Oc1ccc(-c2ccccc2)cc1 [4-Phenylphenol] | 139.3 Å² |  |  |
| Cc1ccc(-c2ccccc2)cc1 [4-Phenyltoluene] |  |  | collision cross section in nitrogen [2]: 135.4 Å² |
| CCCc1ccc(O)cc1 [4-Propylphenol] | 134.5 Å² |  |  |
| Oc1ccncc1 [4-Pyridinol] | 113.9 Å² | 116.2 Å² | collision cross section in nitrogen [4]: 116 Å² |
| O=C(O)c1ccc(S(=O)(=O)O)cc1C(=O)O [4-Sulfophthalic acid] | 145.3 Å² |  |  |
| Cc1ccc(S(N)(=O)=O)cc1 [4-Toluenesulfonamide] | 136.3 Å² |  |  |
| CC(=O)CCc1ccc(OC(C)=O)cc1 [4-[4-(Acetyloxy)phenyl]-2-butanone] |  |  | collision cross section in nitrogen [2]: 146.4 Å² |

From the supplement of paper PMC12317010
